Experimental data published in patent US20100173972A1, “METHODS AND USES RELATED TO RHBDL4” (MEDICAL RESEARCH COUNCIL, priority 2007, published 2010).
Entries after “also recorded” stand apart in the source; their conditions may differ. Values belong to the molecule of their own block, whether it stands above or below them.

How the values were obtained:
[1] = tested on: TGFalpha release, HEK293T cells; assay: Time course after PMA induction of HEK293T cells overexpressing pro-TGFalpha, with protease inhibitors; type: cell-based, human; conditions: DCI 100 μM; HEK293T; Bcl-XL co-expressed
Procedure: Cell culture and cell-based rhomboid cleavage assay. Cells were propagated in DMEM supplemented with 10% fetal calf serum. COS-7 cells were transfected in 35 mm wells with FuGENE 6 (Roche) as described (7). In brief, 250 ng plasmid encoding the substrate (as indicated in the description of the figures), 25 ng for the rhomboid tested, 50 ng for the GRP receptor and empty plasmid to bring the total DNA to 1 μg was used. For protease titration, 2.5 ng to 250 ng plasmid coding RHBDL4 was used. HeLa and HEK293T were transfected with polyethyleneimine (linear, MW 25000; Polysciences) as described (32) using twice the amount of DNA as used with FuGENE. Transfection efficiency was monitored by co-transfection of pEGFP (Invitrogen). Sixteen hours post transfection, medium was replaced with serum-free medium containing 10 μM BB94 (British Biotech) unless otherwise stated. For activation of endogenous rhomboid activity, phorbol 12-myristate 13-acetate (PMA) (1 μM, from Sigma) or bombesin (100 nM, from Sigma) was added to the cell medium. For inhibitor studies, the indicated protease inhibitors (from Calbiochem), diluted from a stock solution in DMSO, were compared with a carrier only. Medium was harvested typically after 24 to 30 hours; for inhibitor studies using 3,4-Dichloroisocoumarin (DCI) a time course with 0 minutes, 30 minutes and 4 hours was performed (FIG. 4C). Cells were solubilized in SDS-sample buffer and analyzed by SDS-PAGE. EndoH (New England Biolabs) and PNGaseF (New England Biolabs) treatment of SDS-solubilized cell extracts was performed according to the manufacturers instructions. Conditioned media were centrifuged for 10 minutes at full speed in a microfuge to remove cell debris, and subsequently proteins in the supernatant were precipitated by adding trichloroacetic acid (TCA) to 10%. The precipitate was recovered by centrifugation, washed with acetone and dissolved in SDS-PAGE sample buffer and analyzed by SDS-PAGE. Alternatively to TCA precipitation, TGFalpha-H8 in conditioned medium was captured by metal-chelate chromatography using Ni-NTA agarose beads (Qiagen) in the presence of 20 mM imidazole at pH 8.0. Subsequently beads were washed with 20 mM Tris-Cl pH 8.0, 50 mM imidazole, eluted with SDS-sample buffer and analyzed by SDS-PAGE and Western blotting (see below). Typically, from a 35 mm tissue culture dish, 10% of cell extracts and 20% of tissue culture supernatant were loaded. To increase the sensitivity, for experiments shown in FIGS. 1C, 3E, 4A and 4C, five times the amount of the media fractions were loaded.
Western blotting. Proteins were analyzed by 4-20% Tris-Glycine gradient gels (Invitrogen) followed by Western blot analysis using either anti FLAG M2-HRP (1:1000; Sigma), anti HA antibody 16B12 (1:1000; Covance), anti actin antibody ab8227 (1:5000; Abcam) or affinity purified polyclonal rabbit antibody anti RHBDL4 (1:4000; see above). In order to detect the 6 kDa form of TGFalpha, proteins were transferred on PVDF membrane with 0.2 μm pore size (Millipore) and probed with 1:100 anti TGFalpha antibody 134A-2B3 (Oncogene). For the detection of phosphorylated EGFR, PVDF membranes were blocked in 3% BSA in TBS-Tween supplemented with 200 μM NaVO3. Protein was detected with anti phospho-EGFR antibody 9H2 (1:2000, Upstate). […] Bound antibodies were detected by incubation with secondary antibody (Santa Cruz Biotechnology) followed by enhanced chemiluminescence (Amersham Biosciences).

cells = assay: Toxicity of DCI to cells during TGFalpha release experiment; type: cell-based; conditions: over several hours, similar time course as TGFalpha release
Excerpt: A central prediction of our model is that the observed BB94-insensitive TGFalpha release would be inhibited by the serine protease inhibitor DCI, a rhomboid inhibitor. […] To help the cells survive, we expressed the antiapoptotic protein Bch XL. […] Overall, these experiments strongly support that EGFR transactivation is triggered by RHBDL4-catalysed shedding of pro-TGFalpha.
Cell culture and cell-based rhomboid cleavage assay. Cells were propagated in DMEM supplemented with 10% fetal calf serum. COS-7 cells were transfected in 35 mm wells with FuGENE 6 (Roche) as described (7). In brief, 250 ng plasmid encoding the substrate (as indicated in the description of the figures), 25 ng for the rhomboid tested, 50 ng for the GRP receptor and empty plasmid to bring the total DNA to 1 μg was used. For protease titration, 2.5 ng to 250 ng plasmid coding RHBDL4 was used. […] Transfection efficiency was monitored by co-transfection of pEGFP (Invitrogen). […] Cells were solubilized in SDS-sample buffer and analyzed by SDS-PAGE. […] The precipitate was recovered by centrifugation, washed with acetone and dissolved in SDS-PAGE sample buffer and analyzed by SDS-PAGE. […] Subsequently beads were washed with 20 mM Tris-Cl pH 8.0, 50 mM imidazole, eluted with SDS-sample buffer and analyzed by SDS-PAGE and Western blotting (see below). […]

mouse RHBDL4 = biological target: T1, mouse RHBDL4 (Mus musculus, UniProt Q8BHC7); assay: In vitro activity assay with recombinant mouse RHBDL4 (Gurken TMD substrate); type: biochemical; parameters: His6 (C); made in house; host or cells: E. coli BL21-Gold(DE3) with pRARE2; Triton X-100 solubilised membrane fraction; conditions: Triton-X 100 solubilised E. coli membrane fraction; also run with mouse RHBDL1 and human RHBDL2
T1 sequence (Q8BHC7 1-315): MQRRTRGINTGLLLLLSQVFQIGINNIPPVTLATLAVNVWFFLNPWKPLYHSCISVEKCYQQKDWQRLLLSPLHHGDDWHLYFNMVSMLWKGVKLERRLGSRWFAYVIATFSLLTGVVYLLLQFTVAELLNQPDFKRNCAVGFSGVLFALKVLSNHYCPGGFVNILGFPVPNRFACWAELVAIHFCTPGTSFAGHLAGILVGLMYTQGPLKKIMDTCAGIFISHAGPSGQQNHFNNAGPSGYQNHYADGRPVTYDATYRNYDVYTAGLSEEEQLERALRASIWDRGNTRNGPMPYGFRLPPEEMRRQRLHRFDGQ
Excerpt: To produce recombinant RHBDL4, a RHBDL4-purification tag fusion protein is expressed and solubilised with detergent appropriate for in vitro activity assay. In this example, C-terminally His6-tagged mouse RHBDL4 is expressed in E. coli BL21-Gold(DE3) cells harbouring the expression vector and the extra plasmid pRARE2 (Novagen) as described for human RHBDL2 (Lemberg, 2005, EMBO vol 24 pp 464-472).
After the protein expression, cells are disrupted and membranes containing the recombinant RHBDL4 are harvested by centrifugation as had been described (Lemberg, 2005 above).
Subsequently the recombinant protein is solubilised with the detergent Triton-X 100 and tested for activity.
Radiolabelled substrate, such as the substrate TMD, is generated by cell-free in vitro translation using wheat germ extract and [35S]methionine as, had been described (Lemberg and Martoglio, 2003 Anal Biochem. vol 319 pp 327-31).
In this example a substrate corresponding to an N-terminal methionine plus residues 224 to 272 of Drosophila Gurken is used. […]
For the cleavage assay, 1-4 μl in vitro translation mix or 50-200 μg/ml recombinant substrate are added to a 40 μl-reaction containing recombinant RHBDL4 (e.g. about 1-5 μg) in 50 mM HEPES/NaOH, pH 7.4, 10% glycerol and 50 mM EDTA. Samples are incubated at 30° C. and subsequently the cleavage reaction is analyzed by SDS-PAGE as described (Lemberg, 2005 above). […]

[2] = biological target: RHBDL4-processed extracellular TGFalpha (post-translationally modified higher MW forms), P01135
Sequence of RHBDL4-processed extracellular TGFalpha (post-translationally modified higher MW forms), P01135 (P01135 whole entry, looked up, tested part not stated): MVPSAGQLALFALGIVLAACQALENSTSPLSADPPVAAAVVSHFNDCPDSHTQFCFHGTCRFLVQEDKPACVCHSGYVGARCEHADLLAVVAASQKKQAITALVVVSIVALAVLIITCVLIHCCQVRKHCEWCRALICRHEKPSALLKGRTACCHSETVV

Cleavage of Drosophila Gurken TMD substrate (mouse RHBDL4): inhibited
Molecule: O=c1oc(Cl)c(Cl)c2ccccc12 [DCI, 3,4-Dichloroisocoumarin]
Release of the 37 kDa form of TGFalpha in response to PMA [1]: inhibited; also recorded: strong and specific inhibitory effect | Toxicity to cells (cells): toxic to cells

B1: recombinant mouse TACE (R&D Systems) (protein)
chain: RAEPNPLKNTCKLLVVADHRFYKYMGRGEESTTTNYLIELIDRVDDIYRNTSWDNAGFKGYGVQIEQIRILKSPQEVKPGERHFNMAKSFPNEEKDAWDVKMLLEQFSFDIAEEASKVCLAHLFTYQDFDMGTLGLAYVGSPRANSHGGVCPKAYYNPTVKKNIYLNSGLTSTKNYGKTILTKEADLVTTHELGHNFGAEHDPDGLAECAPNEDQGGKYVMYPIAVSGDHENNKMFSNCSKQSIYKTIESKAQECFQERSNKVCGNSRVDEGEECDPGIMYLNNDTCCNSDCTLKPGVQCSDRNSPCCKNCQFETAQKKCQEAINATCKGVSYCTGNSSECPPPGDAEDDTVCLDLGKCKAGKCIPFCKREQELESCACVDTDNSCKVCCRNLSGPCVPYVDAEQKNLFLRKGKPCTVGFCDMNGKCEKRVQDVIERFWDFIDQLSINTFGKFLADN
in vitro TACE cleavage assay (Western blot) [2]: Recombinant TACE cleaved the post-translationally modified higher MW forms of TGFalpha. (filled triangles), generating the mature 6 kDa form
